In article PMC10065799, “High-throughput profiling of sequence recognition by tyrosine kinases and SH2 domains using bacterial peptide display” (eLife, 2023):

Assays:
Grb2 SH2 domain = assay: pTyr-Var library SH2 domain screen with SH2-dynabeads (enrichment scores); details: R1-R3
c-Src kinase domain [1] = molecular target: T1, c-Src kinase domain (Homo sapiens, UniProt P12931); assay: pTyr-Var library bacterial peptide display kinase screen (enrichment scores); format: biochemical; details: for c-Src mean of log2(enrichment): mean of log2 of enrichment over R1-R4; for c-Src enrich. R1 / c-Src enrich. R3 / c-Src enrich. R4: pTyr-Var library, enrichment score; for c-Src enrich. R1: replicate 1; for c-Src enrich. R3: replicate 3; for c-Src enrich. R4: replicate 4
c-Src SH2 domain = c-Src SH2 domain (Homo sapiens, UniProt P12931); assay: pTyr-Var library SH2 domain screen with SH2-dynabeads (enrichment scores); details: mean of log2 enrichment of reference peptide, R1-R3; sheet c-Src
EPHB1 kinase domain = assay: pTyr-Var library bacterial peptide display kinase screen (enrichment scores); format: biochemical, human; details: mean of log2 enrichment of reference peptide, n = 4
Hck kinase domain = assay: as above; format: biochemical, human; details: for Hck mean of log2(enrichment): mean of log2(variant) / mean of log2(reference), R1-R4; for Hck enrich. R1 / Hck enrich. R3 / Hck enrich. R4: pTyr-Var library, enrichment score; for Hck enrich. R1: replicate 1; for Hck enrich. R3: replicate 3; for Hck enrich. R4: replicate 4
AncSZ kinase domain = assay: as above; format: biochemical; details: for AncSZ mean of log2(enrichment): mean of log2 of enrichment over R1-R5; for AncSZ enrich. R1 / AncSZ enrich. R3 / AncSZ enrich. R4 / AncSZ enrich. R5: pTyr-Var library, enrichment score; for AncSZ enrich. R1: replicate 1; for AncSZ enrich. R3: replicate 3; for AncSZ enrich. R4: replicate 4; for AncSZ enrich. R5: replicate 5
Fyn kinase domain = assay: as above; format: biochemical, human; details: for Fyn mean of log2(enrichment): mean of log2 of enrichment over R1-R4; for Fyn enrich. R1 / Fyn enrich. R3 / Fyn enrich. R4: pTyr-Var library, enrichment score; for Fyn enrich. R1: replicate 1; for Fyn enrich. R3: replicate 3; for Fyn enrich. R4: replicate 4
Jak2 = assay: as above; format: biochemical, human; details: for Jak2 mean of log2(enrichment): mean of log2 of enrichment over R1-R3; for Jak2 enrich. R1 / Jak2 enrich. R3: pTyr-Var library, enrichment score; for Jak2 enrich. R1: replicate 1; for Jak2 enrich. R3: replicate 3
Fer kinase domain = assay: as above; format: biochemical, mouse; details: for Fer mean of log2(enrichment): mean of log2 of enrichment over R1-R4; for Fer enrich. R1 / Fer enrich. R3 / Fer enrich. R4: pTyr-Var library, enrichment score; for Fer enrich. R1: replicate 1; for Fer enrich. R3: replicate 3; for Fer enrich. R4: replicate 4
FGFR1 kinase domain = assay: as above; format: biochemical, human; details: n = 5
FGFR3 kinase domain = assay: as above; format: biochemical, human; details: n = 5
c-Abl kinase domain [2] = molecular target: T2, c-Abl kinase domain (Mus musculus, UniProt P00520); assay: as above; format: biochemical; details: for c-Abl mean of log2(enrichment): mean of log2 of enrichment over R1-R4; for c-Abl enrich. R1 / c-Abl enrich. R3 / c-Abl enrich. R4: pTyr-Var library, enrichment score; for c-Abl enrich. R1: replicate 1; for c-Abl enrich. R3: replicate 3; for c-Abl enrich. R4: replicate 4
T2 sequence (P00520 242-493 limits assumed): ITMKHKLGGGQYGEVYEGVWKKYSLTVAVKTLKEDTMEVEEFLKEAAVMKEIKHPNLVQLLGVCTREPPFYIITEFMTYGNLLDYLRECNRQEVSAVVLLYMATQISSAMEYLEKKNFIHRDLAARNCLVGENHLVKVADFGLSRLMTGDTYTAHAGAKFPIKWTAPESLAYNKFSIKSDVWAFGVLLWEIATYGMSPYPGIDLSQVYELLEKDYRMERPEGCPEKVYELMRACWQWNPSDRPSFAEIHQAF

Fes = assay: as above; format: biochemical; details: mean of log2 of enrichment over R1-R6
SHP2 C-SH2 domain = assay: pTyr-Var library SH2 domain screen with SH2-dynabeads (enrichment scores); details: R1-R3
MERTK kinase domain = assay: pTyr-Var library bacterial peptide display kinase screen (enrichment scores); format: biochemical, human; details: for mean of log2(reference): mean of log2 enrichment of reference peptide, n = 4
EPHB2 kinase domain = assay: as above; format: biochemical, human; details: mean of log2 enrichment of reference peptide, n = 4
c-Abl kinase domain [3] = molecular target: T2, c-Abl kinase domain; assay: ADP-Quest continuous fluorimetric kinase assay (Michaelis-Menten parameters and initial rates); format: biochemical; details: peptide 100 μM, kinase 10–50 nM; Figure 2C
c-Src kinase domain [4] = molecular target: T1, c-Src kinase domain; assay: as above; format: biochemical
[5] = ADP-Quest assay, c-Src kinase domain 10 nM, 100 μM ATP, 37 °C, three to five replicates, error = standard error of global Michaelis-Menten fit

Row | Substance | mean of log2(reference) (Grb2 SH2 domain) | c-Src mean of log2(enrichment) (c-Src kinase domain [1]) | c-Src enrich. R1 (c-Src kinase domain [1]) | c-Src enrich. R3 (c-Src kinase domain [1]) | c-Src enrich. R4 (c-Src kinase domain [1]) | mean of log2(reference) (c-Src SH2 domain) | mean of log2(reference) (EPHB1 kinase domain) | Hck mean of log2(enrichment) (Hck kinase domain) | Hck enrich. R1 (Hck kinase domain) | Hck enrich. R3 (Hck kinase domain) | Hck enrich. R4 (Hck kinase domain) | AncSZ mean of log2(enrichment) (AncSZ kinase domain) | AncSZ enrich. R1 (AncSZ kinase domain) | AncSZ enrich. R3 (AncSZ kinase domain) | AncSZ enrich. R4 (AncSZ kinase domain) | AncSZ enrich. R5 (AncSZ kinase domain) | Fyn mean of log2(enrichment) (Fyn kinase domain) | Fyn enrich. R1 (Fyn kinase domain) | Fyn enrich. R3 (Fyn kinase domain) | Fyn enrich. R4 (Fyn kinase domain) | further results
1 | GMAHNYRNSSQ [AASS_Y188] | -0.5728 | -1.404 | 0.429 | 0.2705 | 0.4776 | -1.119 | -2.084 | 0.4135 | 0.473 | 0.3667 | 0.3337 | -0.7891 | 0.6022 | 0.4422 | 0.5318 | 0.777 | -1.328 | 0.4068 | 0.5016 | 0.6969 | Jak2 mean of log2(enrichment) (Jak2): -1.234; Jak2 enrich. R1 (Jak2): 0.5584; Jak2 enrich. R3 (Jak2): 0.3848; Fer mean of log2(enrichment) (Fer kinase domain): -1.39; Fer enrich. R1 (Fer kinase domain): 0.41; Fer enrich. R3 (Fer kinase domain): 0.4208; Fer enrich. R4 (Fer kinase domain): 0.3128; mean of log2(reference) (FGFR1 kinase domain): -1.437; mean of log2(reference) (FGFR3 kinase domain): -1.231; c-Abl mean of log2(enrichment) (c-Abl kinase domain [2]): -1.694; c-Abl enrich. R1 (c-Abl kinase domain [2]): 0.3586; c-Abl enrich. R3 (c-Abl kinase domain [2]): 0.2586; c-Abl enrich. R4 (c-Abl kinase domain [2]): 0.2717; Fes mean of log2(enrichment) (Fes): -1.191; mean of log2(reference) (SHP2 C-SH2 domain): -0.8121; mean of log2(reference) (MERTK kinase domain): -1.316; ref. mean (MERTK kinase domain; pTyr-Var library, reference peptide enrichment, mean of n = 4): 0.4184; mean of log2(reference) (EPHB2 kinase domain): -1.13
2 | TTGLIYIGSHD [AASDH_Y870] | 0.04072 | -1.294 | 0.3921 | 0.3853 | 0.4379 | -0.7916 | -0.5976 | 0.4597 | 0.6399 | 0.4036 | 0.2897 | -0.4681 | 0.7227 | 0.6145 | 0.7736 | 0.7032 | -1.48 | 0.4689 | 0.3674 | 0.214 | Jak2 mean of log2(enrichment) (Jak2): -0.485; Jak2 enrich. R1 (Jak2): 0.7507; Jak2 enrich. R3 (Jak2): 0.724; Fer mean of log2(enrichment) (Fer kinase domain): -1.298; Fer enrich. R1 (Fer kinase domain): 0.3587; Fer enrich. R3 (Fer kinase domain): 0.5035; Fer enrich. R4 (Fer kinase domain): 0.5633; mean of log2(reference) (FGFR1 kinase domain): -1.189; mean of log2(reference) (FGFR3 kinase domain): -0.6492; c-Abl mean of log2(enrichment) (c-Abl kinase domain [2]): -1.045; c-Abl enrich. R1 (c-Abl kinase domain [2]): 0.5107; c-Abl enrich. R3 (c-Abl kinase domain [2]): 0.4932; c-Abl enrich. R4 (c-Abl kinase domain [2]): 0.3951; Fes mean of log2(enrichment) (Fes): -0.4107; mean of log2(reference) (SHP2 C-SH2 domain): -0.7271; mean of log2(reference) (MERTK kinase domain): -1.687; mean of log2(reference) (EPHB2 kinase domain): -0.8783
3 | Ac-GPDECIYDMFPFKKKG-NH2 [Src Consensus, c-Src consensus substrate peptide from X5-Y-X5 screen] | – | – | – | – | – | – | – | – | – | – | – | – | – | – | – | – | – | – | – | – | phosphorylation of consensus peptide by c-Abl (initial rate relative to cognate consensus) (c-Abl kinase domain [3]): efficiently phosphorylated; Km (c-Src kinase domain [4]; [5]): 196 ± 38 µM; kcat (c-Src kinase domain [4]; [5]): 4.9±0.4 s^–1; phosphorylation of consensus peptide by c-Src (initial rate relative to cognate consensus) (c-Src kinase domain [4]; high concentration: peptide 100 μM, kinase 10–50 nM, Figure 2C): selective
